For seven test systems, surviving fraction results are on record in the supplement of paper PMC6045584.

Compound in one test: Cc1cn(-c2cc(NC(=O)c3ccc(C)c(Nc4nccc(-c5cccnc5)n4)c3)cc(C(F)(F)F)c2)cn1 [NILOTINIB]
The test can be described thus: surviving fraction relative to DMSO-only wells; higher = less growth inhibition. The conditions noted are these: exposure time: 5 days. In short, it runs like this: (§1)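 Five days of continuous inhibitor exposure, at 0.5, 1, 5, 10, 50, 100, 500 and 1000 nM, followed a 24-hour period after log-phase tumour cell lines were seeded at 250–500 cells per well in 384-well plates. Surviving fraction was derived from CellTiter-Glo luminescence relative to the median of DMSO-only wells. Plates were read after 10 minutes at room temperature, and lines screened three times were kept only if replicate Pearson r >0.7 and median Z' >0.3.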

Compound in a further test: Cn1c(=O)n(-c2ccc(C(C)(C)C#N)cc2)c2c3cc(-c4cnc5ccccc5c4)ccc3ncc21 [BEZ-235]
The description is as above. The following applies: exposure time: 5 days. In short, it runs like this:
as §1

± gives the standard deviation of the averaged measurements.

As to SUM44 BREAST, the surviving fraction was found to be 1.03 ± 0.19 with NILOTINIB (0.5 nM); 1.04 ± 0.21 with NILOTINIB (1 nM); 1.08 ± 0.23 with NILOTINIB (5 nM); 1.07 ± 0.15 with NILOTINIB (10 nM); 0.958 ± 0.012 with NILOTINIB (50 nM); 0.934 ± 0.059 in the test with NILOTINIB (100 nM). Also, the surviving fraction in the test with NILOTINIB (500 nM) came out at 0.943 ± 0.064; in the test with NILOTINIB (1000 nM), 0.932 ± 0.083; with BEZ-235 (0.5 nM), 1.03 ± 0.046; with BEZ-235 (1 nM), 1.02 ± 0.067; in the test with BEZ-235 (5 nM), 1.04 ± 0.025; in the test with BEZ-235 (10 nM) it was 0.972 ± 0.021. Further, the surviving fraction is 0.724 ± 0.026 with BEZ-235 (50 nM), 0.422 ± 0.072 with BEZ-235 (100 nM), 0.104 ± 0.0081 with BEZ-235 (500 nM) and 0.099 ± 0.017 in the test with BEZ-235 (1000 nM).
As to BT549 BREAST, the surviving fraction was 1.1 ± 0.15 with NILOTINIB (0.5 nM); 0.924 ± 0.095 with NILOTINIB (1 nM); 1.1 ± 0.11 with NILOTINIB (5 nM); 1.12 ± 0.11 with NILOTINIB (10 nM); 1.05 ± 0.11 with NILOTINIB (50 nM); 0.93 ± 0.14 in the test with NILOTINIB (100 nM). Also, the surviving fraction with NILOTINIB (500 nM) stood at 1.01 ± 0.16; with NILOTINIB (1000 nM) it was 0.964 ± 0.15; in the test with BEZ-235 (0.5 nM) it was 1.06 ± 0.11; in the test with BEZ-235 (1 nM) it was 1.03 ± 0.032; in the test with BEZ-235 (5 nM), 1.03 ± 0.02; with BEZ-235 (10 nM) it was 0.763 ± 0.22. Besides, the surviving fraction was 0.699 ± 0.016 with BEZ-235 (50 nM), 0.244 ± 0.073 in the test with BEZ-235 (100 nM), 0.136 ± 0.017 in the test with BEZ-235 (500 nM) and 0.247 ± 0.29 with BEZ-235 (1000 nM).
As to YAMATO SYNOVIAL, the surviving fraction with NILOTINIB (0.5 nM) was 1.18 ± 0.14; with NILOTINIB (1 nM), 1.22 ± 0.016; with NILOTINIB (5 nM), 1.28 ± 0.064; with NILOTINIB (10 nM) it was 1.26 ± 0.1; in the test with NILOTINIB (50 nM), 1 ± 0.05; with NILOTINIB (100 nM) it was 0.94 ± 0.096. Further, the surviving fraction in the test with NILOTINIB (500 nM) was determined as 0.771 ± 0.024; in the test with NILOTINIB (1000 nM), 0.658 ± 0.031; with BEZ-235 (0.5 nM), 1.28 ± 0.087; with BEZ-235 (1 nM) it was 1.26 ± 0.12; in the test with BEZ-235 (5 nM), 1.34 ± 0.084; with BEZ-235 (10 nM) it was 1.12 ± 0.048. Also, the surviving fraction in the test with BEZ-235 (50 nM) turned out to be 0.923 ± 0.043; with BEZ-235 (100 nM) it was 0.849 ± 0.12; in the test with BEZ-235 (500 nM), 0.47 ± 0.038; with BEZ-235 (1000 nM), 0.429 ± 0.016.
On to VP229 BREAST, for which the surviving fraction was found to be 1.24 ± 0.14 in the test with NILOTINIB (0.5 nM); 1.12 ± 0.11 in the test with NILOTINIB (1 nM); 1.04 ± 0.075 with NILOTINIB (5 nM); 1.18 ± 0.24 with NILOTINIB (10 nM); 1.05 ± 0.041 with NILOTINIB (50 nM); 1.08 ± 0.094 with NILOTINIB (100 nM). For the same test system, the surviving fraction in the test with NILOTINIB (500 nM) worked out at 1.28 ± 0.04; in the test with NILOTINIB (1000 nM) it was 1.12 ± 0.059; with BEZ-235 (0.5 nM) it was 1.36 ± 0.32; with BEZ-235 (1 nM) it was 1.22 ± 0.075; with BEZ-235 (5 nM), 1.25 ± 0.089; in the test with BEZ-235 (10 nM), 1.04 ± 0.035. In addition, the surviving fraction with BEZ-235 (50 nM) was 0.969 ± 0.094; with BEZ-235 (100 nM), 0.751 ± 0.025; with BEZ-235 (500 nM), 0.268 ± 0.008; with BEZ-235 (1000 nM), 0.159 ± 0.008.
Turning to SJSA1 BONE, the surviving fraction with NILOTINIB (0.5 nM) is 1.73 ± 0.13; in the test with NILOTINIB (1 nM), 1.67 ± 0.1; with NILOTINIB (5 nM) it was 1.65 ± 0.08; with NILOTINIB (10 nM) it was 1.802 ± 0.014; with NILOTINIB (50 nM), 1.56 ± 0.1; with NILOTINIB (100 nM), 1.69 ± 0.04. In addition, the surviving fraction with NILOTINIB (500 nM) turned out to be 1.63 ± 0.074; with NILOTINIB (1000 nM), 1.77 ± 0.044; with BEZ-235 (0.5 nM), 1.07 ± 0.064; with BEZ-235 (1 nM), 1.04 ± 0.05; with BEZ-235 (5 nM) it was 1.035 ± 0.004; with BEZ-235 (10 nM), 1.02 ± 0.098. Besides, the surviving fraction with BEZ-235 (50 nM) amounted to 0.803 ± 0.031; with BEZ-235 (100 nM), 0.623 ± 0.013; with BEZ-235 (500 nM) it was 0.249 ± 0.015; in the test with BEZ-235 (1000 nM), 0.206 ± 0.012.
Regarding SCC90 HEADNECK, the surviving fraction in the test with NILOTINIB (0.5 nM) amounted to 0.993 ± 0.034; in the test with NILOTINIB (1 nM), 1 ± 0.02; in the test with NILOTINIB (5 nM), 1.07 ± 0.17; with NILOTINIB (10 nM), 1.201 ± 0.0059; in the test with NILOTINIB (50 nM) it was 0.966 ± 0.13; with NILOTINIB (100 nM) it was 0.764 ± 0.045. For the same test system, the surviving fraction with NILOTINIB (500 nM) worked out at 0.924 ± 0.069; in the test with NILOTINIB (1000 nM), 0.867 ± 0.1; in the test with BEZ-235 (0.5 nM) it was 1.12 ± 0.06; with BEZ-235 (1 nM) it was 1.12 ± 0.14; in the test with BEZ-235 (5 nM) it was 1.11 ± 0.018; with BEZ-235 (10 nM), 1.03 ± 0.036. The surviving fraction with BEZ-235 (50 nM) was 0.912 ± 0.066; with BEZ-235 (100 nM), 0.722 ± 0.079; with BEZ-235 (500 nM), 0.376 ± 0.014; with BEZ-235 (1000 nM), 0.288 ± 0.0071.
Consider KPD BONE, for which the surviving fraction with NILOTINIB (0.5 nM) is 1.04 ± 0.097; with NILOTINIB (1 nM), 0.981 ± 0.038; in the test with NILOTINIB (5 nM) it was 1.06 ± 0.032; with NILOTINIB (10 nM) it was 1.02 ± 0.026; with NILOTINIB (50 nM), 1.03 ± 0.03; with NILOTINIB (100 nM), 1.11 ± 0.055. Besides, the surviving fraction in the test with NILOTINIB (500 nM) was determined as 0.925 ± 0.033; with NILOTINIB (1000 nM), 0.841 ± 0.028; with BEZ-235 (0.5 nM) it was 0.977 ± 0.065; in the test with BEZ-235 (1 nM) it was 1.01 ± 0.061; with BEZ-235 (5 nM), 1 ± 0.024; in the test with BEZ-235 (10 nM) it was 0.951 ± 0.032. In addition, the surviving fraction is 0.525 ± 0.029 in the test with BEZ-235 (50 nM), 0.361 ± 0.0087 with BEZ-235 (100 nM), 0.0903 ± 0.0011 with BEZ-235 (500 nM) and 0.0727 ± 0.0025 with BEZ-235 (1000 nM).
